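Each compound was tested at five concentrations against cells in 96-well plates for 48 hours. TGI is the concentration that stops growth completely.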
Tests used:
Assay in all cases: DTP human tumour cell line panel, 48 h
[1] = test system: MDA-MB-231 breast
[2] = test system: BT-549 breast
[3] = test system: ACHN renal
[4] = test system: MALME-3M melanoma
[5] = test system: OVCAR-3 ovarian
[6] = test system: KM12 colon
[7] = test system: K-562 leukemia
[8] = test system: HCT-15 colon
[9] = test system: MDA-MB-435
[10] = test system: SR leukemia
[11] = test system: MOLT-4 leukemia
[12] = test system: 786-0 renal
[13] = test system: SK-MEL-28 melanoma
[14] = test system: HT29 colon
[15] = test system: SNB-75 CNS
[16] = test system: MCF7 breast
[17] = test system: NCI/ADR-RES ovarian
[18] = test system: SF-295 CNS
[19] = test system: SK-OV-3 ovarian
[20] = test system: RPMI-8226 leukemia
[21] = test system: OVCAR-5 ovarian
[22] = test system: HOP-92 NSCLC
[23] = test system: HCT-116 colon
[24] = test system: CCRF-CEM leukemia
[25] = test system: CAKI-1 renal
[26] = test system: DU-145 prostate
[27] = test system: HCC-2998 colon
[28] = test system: UACC-257 melanoma
[29] = test system: SW-620 colon
[30] = test system: LOX IMVI melanoma
[31] = test system: RXF 393 renal
[32] = test system: NCI-H226 lung
[33] = test system: MDA-N
[34] = test system: SN12C renal
[35] = test system: SF-539 CNS
[36] = test system: NCI-H460 lung
[37] = test system: COLO 205 colon
[38] = test system: NCI-H522 lung
[39] = test system: A549 NSCLC
[40] = test system: SK-MEL-2 melanoma
[41] = test system: SK-MEL-5 melanoma
[42] = test system: UACC-62 melanoma
[43] = test system: SNB-19 CNS
[44] = test system: HOP-62 NSCLC
[45] = test system: UO-31 renal
[46] = test system: PC-3 prostate
[47] = test system: SF-268 CNS
[48] = test system: NCI-H23 lung
[49] = test system: U251 CNS
[50] = test system: HL-60(TB) leukemia
[51] = test system: EKVX NSCLC
[52] = test system: OVCAR-8 ovarian
[53] = test system: T-47D breast
[54] = test system: M14 melanoma
[55] = test system: HS 578T breast
[56] = test system: TK-10 renal
[57] = test system: IGROV1 ovarian
[58] = test system: OVCAR-4 ovarian

`CC(=O)OCC(OC(C)=O)C(OC(C)=O)C(OC(C)=O)C(/C=N\Nc1nc2ccccc2c(=O)[nH]1)=N/Nc1nc2ccccc2c(=O)[nH]1` (configuration not stated) was tested, and the TGI [1] was > 100 µM, the TGI [2] was > 100 µM and the TGI [3] was > 100 µM. The TGI [4] was > 100 µM, the TGI [5] was > 100 µM and the TGI [6] was > 100 µM. The TGI [7] was > 100 µM, the TGI [8] was > 100 µM and the TGI [9] was > 100 µM. For the same molecule, the TGI [10] was > 100 µM, the TGI [11] was > 100 µM and the TGI [12] was > 100 µM. For the same molecule, the TGI [13] was > 100 µM, the TGI [14] was > 100 µM and the TGI [15] was > 100 µM. For the same molecule, the TGI [16] was > 100 µM, the TGI [17] was > 100 µM and the TGI [18] was > 100 µM. For the same molecule, the TGI [19] was > 100 µM, the TGI [20] was > 100 µM and the TGI [21] was > 100 µM. The TGI [22] was > 100 µM, the TGI [23] was > 100 µM and the TGI [24] was > 100 µM. For the same molecule, the TGI [25] was > 100 µM, the TGI [26] was > 100 µM and the TGI [27] was > 100 µM. The TGI [28] was > 100 µM, the TGI [29] was > 100 µM and the TGI [30] was > 100 µM. For the same molecule, the TGI [31] was > 100 µM, the TGI [32] was > 100 µM and the TGI [33] was > 100 µM. For the same molecule, the TGI [34] was > 100 µM, the TGI [35] was > 100 µM and the TGI [36] was > 100 µM. The TGI [37] was > 100 µM, the TGI [38] was > 100 µM and the TGI [39] was > 100 µM. For the same molecule, the TGI [40] was > 100 µM, the TGI [41] was > 100 µM and the TGI [42] was > 100 µM. For the same molecule, the TGI [43] was > 100 µM, the TGI [44] was > 100 µM and the TGI [45] was > 100 µM. The TGI [46] was > 100 µM, the TGI [47] was > 100 µM and the TGI [48] was > 100 µM. The TGI [49] was > 100 µM, the TGI [50] was > 100 µM and the TGI [51] was > 100 µM. For the same molecule, the TGI [52] was > 100 µM, the TGI [53] was > 100 µM and the TGI [54] was > 100 µM. For the same molecule, the TGI [55] was > 100 µM.

With `CC1(C)CN=C(Nc2ccc(F)c(F)c2)S1` the TGI [1] was > 100 µM, the TGI [2] was > 100 µM and the TGI [3] was > 100 µM. The TGI [4] was > 100 µM, the TGI [5] was > 100 µM and the TGI [6] was > 100 µM. The TGI [7] was > 100 µM, the TGI [8] was > 100 µM and the TGI [9] was > 100 µM. For the same molecule, the TGI [10] was > 100 µM, the TGI [11] was > 100 µM and the TGI [12] was > 100 µM. For the same molecule, the TGI [13] was > 100 µM, the TGI [14] was > 100 µM and the TGI [15] was > 100 µM. The TGI [16] was > 100 µM, the TGI [17] was > 100 µM and the TGI [18] was > 100 µM. The TGI [19] was > 100 µM, the TGI [20] was > 100 µM and the TGI [21] was > 100 µM. The TGI [22] was 90.4 µM, the TGI [23] was > 100 µM and the TGI [24] was > 100 µM. The TGI [25] was > 100 µM, the TGI [26] was > 100 µM and the TGI [27] was > 100 µM. The TGI [28] was > 100 µM, the TGI [29] was > 100 µM and the TGI [30] was > 100 µM. The TGI [31] was > 100 µM, the TGI [32] was > 100 µM and the TGI [33] was > 100 µM. The TGI [34] was > 100 µM, the TGI [35] was > 100 µM and the TGI [56] was > 100 µM. The TGI [37] was > 100 µM, the TGI [38] was > 100 µM and the TGI [39] was > 100 µM. The TGI [40] was > 100 µM, the TGI [41] was > 100 µM and the TGI [57] was > 100 µM. For the same molecule, the TGI [42] was > 100 µM, the TGI [43] was > 100 µM and the TGI [44] was > 100 µM. The TGI [45] was > 100 µM, the TGI [46] was > 100 µM and the TGI [47] was > 100 µM. For the same molecule, the TGI [48] was > 100 µM, the TGI [58] was > 100 µM and the TGI [49] was > 100 µM. The TGI [50] was > 100 µM, the TGI [51] was > 100 µM and the TGI [52] was > 100 µM. The TGI [53] was > 100 µM, the TGI [54] was > 100 µM and the TGI [55] was > 100 µM.

— PubChem BioAssay (NCI)
